Data published in patent US4626540A, “Substituted 1-amino-4-nitro-acridinones and methods of treating bacterial infections and leukemia with them” (Warner-Lambert Company, priority 1984, dated 1986).
Values after ≈ are worked out from the molar mass of the structure shown. Counter-ions that a name gives are not always drawn.

Assays:
[1] = test system: Corynebacterium Sp. ATCC 21698; assay: In vitro antibacterial (ABMF) microdilution test, Corynebacterium Sp.; type: cell-based; conditions: ATCC21698, Mueller-Hinton broth, 37° C., 16-24 hours, read-out: ABMF minimal inhibitory conc, Coryn. Species
Text: (§1) Still another test protocol is the in vitro antibacterial (ABMF) test which is a recognized standard microdilution susceptibility procedure in Mueller-Hinton broth against Gram-positive and Gram-negative bacterial test organisms. The procedure is a modification of a state-of-the-art procedure reported in Manual of Clinical Microbiology, Lennette, E. H., ed., by Barry, A. L. and C. Thornsberry at pages 463-474 and by Gavan, T. L. and A. L. Barry at pages 459-462, American Society for Microbiology, Washington, 1980.
(§2) In the test, a given bacterial culture is used to inoculate individual test wells of microdilution trays containing growth medium and test compound, the latter in a microdilution series: 1000, 333, 111, 37, 12, 4, 1.4, and 0.46 micrograms per milliliter. […] For convenience, values are reported for Escherichia coli, Corynebacterium Sp. ATCC 21698, Branhamella catarrhalis, Streptococcus pneumoniae, and Bacillus cereus.

Bacillus cereus = assay: In vitro antibacterial (ABMF) microdilution test, Bacillus cereus; type: cell-based; conditions: Mueller-Hinton broth, 37° C., 16-24 hours, read-out: ABMF minimal inhibitory conc, B. cer.
Text: as §1, §2

[2] = test system: lymphocytic leukemia P388; assay: In vivo lymphocytic leukemia P388 test; design: species or system CD2 F1 mice; conditions: Mus musculus, P388, ip, intraperitoneal, once daily for five days, survival time treated/control, read-out: P388 in vivo T/C × 100
Method: Another test protocol is the in vivo lymphocytic leukemia P388 test. the animals used are either male or female CD2 F1 mice, six or seven animals per test group. The tumor transplant is by intraperitoneal injection of dilute ascitic fluid containing cells of lymphocytic leukemia P388. The test compounds are administered intraperitoneally once daily for five consecutive days at various doses following tumor inoculation. The animals are weighed and survivors are recorded on a regular basis for 30 days. A compound is designated "toxic" if, at a given dose, all animals die prior to four days after the first injection of drug. A ratio of survival time for treated (T)/control (C) animals is calculated. A criterion for efficacy is a ratio T/C times 100 greater than or equal to 125. See Cancer Chemotherapy Reports, Part 3, 3, 1 (1972) for a comprehensive discussion of the protocol.

Branhamella catarrhalis = assay: In vitro antibacterial (ABMF) microdilution test, Branhamella catarrhalis; type: cell-based; conditions: Moraxella catarrhalis; Mueller-Hinton broth, 37° C., 16-24 hours; read-out: ABMF minimal inhibitory conc, B. cat.
Text: as §1, §2

Escherichia coli = assay: In vitro antibacterial (ABMF) microdilution test, Escherichia coli; type: cell-based; conditions: Mueller-Hinton broth, 37° C., 16-24 hours, read-out: ABMF minimal inhibitory conc, E. coli
Text: as §1, §2

[3] = test system: L1210 murine leukemia cell lines; assay: In vitro antitumor screening (PDC test), L1210 murine leukemia cell growth; type: cell-based; conditions: Mus musculus, 72 h; L1210 cells, 37° C., three days; value is ID50 multiplied by 10^7
Method: Another test protocol is the in vitro antitumor screening (PDC test) of compounds of the present invention on L1210 murine leukemia cell lines. L1210 cells, a murine leukemia cell line, were grown in RPMI 1640 supplemented with 5% fetal bovine serum and gentamicin (50 μg/ml).
Drug dilutions were prepared in the apropriate solvent and 20 μl of each dilution were added to 24-well Linbro tissue culture plats, followed by the addition of M 2.0 ml of cell suspension containing 3×10^4 cells per ml. Solvent and medium controls were included in each test. After incubation at 37° C. for three days in 5% CO2, the contents of each well were removed and the cells counted in a ZBI Coulter counter. Percent growth was calculated relative to the controls and the levels of drug activity wre expressed as ID50 in moles per liter using probit paper.

HCT-8 cells = assay: In vitro proliferating human colon adenocarcinoma (HCA) cell screen, HCT-8 cells; type: cell-based; conditions: 60-65 hours at 37° C., value is ID50 multiplied by 10^7;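 note: ID50 is the molar concentration giving 50% growth inhibition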
Method: One test protocol is the in vitro proliferating human colon adenocarcinoma (HCA) cell screen. In this test, HCT-8 cells (HCA cell line received from Yale University) are trypsinized using trypsin-EDTA. A single cell suspension is achieved by passing the cells through a 26-gauge needle with a 20-cc syringe. A cell suspension is prepared using RPMI 1640+10% FCS+50 μg/ml gentamicin sulfate with a cell concentration of approximately 5,000 cells/ml. The cell suspension is dispensed in Linbro 24-well plates; 1 ml/well. The plates are incubated for approximately 48 hours at 37° C. in a 5% CO2 atmosphere. At this time test compounds are added in the appropriate concentration. Ten μl of the appropriate dilution is added to each well for a titration test. The plates are reincubated an additional 60-65 hours at 37° C. in a 5% CO2 atmosphere. The cells are lysed using a mix of cationic surfactant, glacial acetic acid and sodium chloride. Two ml of the lysed cell suspension from each well is added to 8 ml of diluent. The number of nuclei is determined using a Coulter counter (ZBI model), and a percent growth for each drug concentration is calculated.

Streptococcus pneumoniae = assay: In vitro antibacterial (ABMF) microdilution test, Streptococcus pneumoniae; type: cell-based; conditions: Mueller-Hinton broth, 37° C., 16-24 hours, read-out: ABMF minimal inhibitory conc, S. pneu.
Text: as §1, §2

Molecule `CCCCOc1ccc2[nH]c3c([N+](=O)[O-])ccc(NCCNCCO)c3c(=O)c2c1` [Example 18, 7-Butoxy-1-[[2-[(2-hydroxyethyl)amino]ethyl]amino]-4-nitro-9(10H)-acridinone, methanesulfonate, 0.3 hydrate] has an MIC [1] of 37 µg/mL, an MIC (Bacillus cereus) of 333 µg/mL and a response vs control in vivo at 12.5 mg/kg [2] of 121%. The response vs control in vivo at 25 mg/kg [2] was 136%, the MIC (Branhamella catarrhalis) was 333 µg/mL and the MIC (Escherichia coli) was 111 µg/mL. The IC50 [3] was 350 nM, the IC50 (HCT-8 cells) was 400 nM and the MIC (Streptococcus pneumoniae) was 37 µg/mL.
Molecule `CCOc1ccc2[nH]c3c([N+](=O)[O-])ccc(NCCN(CCO)CCO)c3c(=O)c2c1` [Example 19, 1-[[2-Bis(2-hydroxyethyl)amino]ethyl]amino]-7-ethoxy-4-nitro-9(10H)-acridinone, methanesulfonate 0.8 hydrate] has an MIC [1] of over 1000 µg/mL, an MIC (Bacillus cereus) of over 1000 µg/mL and a response vs control in vivo at 100 mg/kg [2] of 130%. For the same molecule, the response vs control in vivo at 200 mg/kg ([2]; 200 mg/kg) was 147%, the MIC (Branhamella catarrhalis) was 111 µg/mL and the MIC (Escherichia coli) was over 1000 µg/mL. For the same molecule, the IC50 [3] was 1500 nM, the IC50 (HCT-8 cells) was 1010 nM and the MIC (Streptococcus pneumoniae) was over 1000 µg/mL.
`CN(C)CCCNc1ccc([N+](=O)[O-])c2[nH]c3ccccc3c(=O)c12.CS(=O)(=O)O` [Example 20, 1-[[3-(Dimethylamino)propyl]amino]-4-nitro-9(10H)-acridinone, methanesulfonate (1:1)] showed an MIC [1] of under 0.46 µg/mL, an MIC (Bacillus cereus) of 4.1 µg/mL and a response vs control in vivo at 50 mg/kg [2] of 144%. It also gave a response vs control in vivo at 100 mg/kg [2] of 189%, an MIC (Branhamella catarrhalis) of under 0.46 µg/mL and an MIC (Escherichia coli) of 1.4 µg/mL. The IC50 [3] was 570 nM, the IC50 (HCT-8 cells) was 200 nM and the MIC (Streptococcus pneumoniae) was under 0.46 µg/mL.
In the case of `CN(C)CCCNc1ccc([N+](=O)[O-])c2[nH]c3ccc(O)cc3c(=O)c12` [Example 21], the MIC [1] is reported as 0.46 µg/mL (≈ 1.29 µM), the MIC (Bacillus cereus) is reported as under 0.46 µg/mL and the response vs control in vivo at 1.56 mg/kg ([2]; 1.56 mg/kg) is reported as 162%. The response vs control in vivo at 3.12 mg/kg ([2]; 3.12 mg/kg) was 187%, the response vs control in vivo at 6.25 mg/kg [2] was 234% and the MIC (Branhamella catarrhalis) was under 0.46 µg/mL. It also gave an MIC (Escherichia coli) of under 0.46 µg/mL, an IC50 [3] of 19 nM and an IC50 (HCT-8 cells) of 2.8 nM. The MIC (Streptococcus pneumoniae) was 0.46 µg/mL (≈ 1.29 µM).
`COc1ccc2[nH]c3c([N+](=O)[O-])ccc(NCCCN(C)C)c3c(=O)c2c1` [Example 22, 1-[[3-(Dimethylaminopropyl)amino]-7-methoxy-4-nitro-9(10H)-acridinone, methanesulfonate (1:1), hemihydrate] showed an MIC [1] of under 0.46 µg/mL, an MIC (Bacillus cereus) of 4.1 µg/mL and a response vs control in vivo at 6.25 mg/kg [2] of 138%. The response vs control in vivo at 12.5 mg/kg [2] was 156%, the response vs control in vivo at 25 mg/kg [2] was 178% and the response vs control in vivo at 50 mg/kg [2] was 225%. It also gave a response vs control in vivo at 100 mg/kg [2] of 205%, an MIC (Branhamella catarrhalis) of under 0.46 µg/mL and an MIC (Escherichia coli) of 1.4 µg/mL. The IC50 [3] was 1200 nM, the IC50 (HCT-8 cells) was 260 nM and the MIC (Streptococcus pneumoniae) was under 0.46 µg/mL.
In the case of `CCOc1ccc2[nH]c3c([N+](=O)[O-])ccc(NCCCN(C)C)c3c(=O)c2c1.CS(=O)(=O)O` [Example 23, 1-[[(Dimethylamino)propyl]amino]-7-ethoxy-4-nitro-9(10H)acridinone, methanesulfonate], the MIC [1] is reported as under 0.46 µg/mL, the MIC (Bacillus cereus) is reported as 12.3 µg/mL and the response vs control in vivo at 12.5 mg/kg [2] is reported as 135%. For the same molecule, the response vs control in vivo at 25 mg/kg [2] was 157%, the response vs control in vivo at 50 mg/kg [2] was 210% and the MIC (Branhamella catarrhalis) was under 0.46 µg/mL. It also gave an MIC (Escherichia coli) of under 0.46 µg/mL, an IC50 [3] of 320 nM and an IC50 (HCT-8 cells) of 200 nM. The MIC (Streptococcus pneumoniae) was 1.4 µg/mL.
`CCCCOc1ccc2[nH]c3c([N+](=O)[O-])ccc(NCCCN(C)C)c3c(=O)c2c1.CS(=O)(=O)O` [Example 24, 7-Butoxy-1-[[3-(dimethylamino)propyl]amino]-4-nitro-9(10H)-acridinone, methanesulfonate] was tested, and the MIC [1] was 4.1 µg/mL, the MIC (Bacillus cereus) was 111 µg/mL and the response vs control in vivo at 12.5 mg/kg [2] was 123%. It also gave a response vs control in vivo at 25 mg/kg [2] of 151%, an MIC (Branhamella catarrhalis) of 12.3 µg/mL and an MIC (Escherichia coli) of 12.3 µg/mL. The IC50 [3] was 350 nM, the IC50 (HCT-8 cells) was 370 nM and the MIC (Streptococcus pneumoniae) was 1.4 µg/mL.
Molecule `CCN(CC)CCCNc1ccc([N+](=O)[O-])c2[nH]c3ccc(OC)cc3c(=O)c12` [Example 26, 1-[[3-(Diethylamino)propyl]amino]-7-methoxy-4-nitro-9(10H)-acridinone, methanesulfonate (salt) (1:1)] has an MIC [1] of 0.46 µg/mL, an MIC (Bacillus cereus) of 12.3 µg/mL and a response vs control in vivo at 12.5 mg/kg [2] of 127%. For the same molecule, the response vs control in vivo at 25 mg/kg [2] was 142%, the response vs control in vivo at 50 mg/kg [2] was 161% and the response vs control in vivo at 100 mg/kg [2] was 198%. The MIC (Branhamella catarrhalis) was under 0.46 µg/mL, the MIC (Escherichia coli) was 12.3 µg/mL and the IC50 [3] was 78 nM. It also gave an IC50 (HCT-8 cells) of 270 nM and an MIC (Streptococcus pneumoniae) of 4.1 µg/mL.
`COc1ccc2c(c1)c(=O)c1c(NCCCN(C)C)ccc([N+](=O)[O-])c1n2C.CS(=O)(=O)O` [Example 34, 1-[[3-(Dimethylamino)propyl]amino]-7-methoxy-10-methyl-4-nitro-9(10H)-acridinone, methanesulfonate (1:1)] showed an MIC [1] of 12.3 µg/mL, an MIC (Bacillus cereus) of 12.3 µg/mL and a response vs control in vivo at 50 mg/kg [2] of 123%. It also gave a response vs control in vivo at 100 mg/kg [2] of 136%, an MIC (Branhamella catarrhalis) of 12.3 µg/mL and an MIC (Escherichia coli) of 12.3 µg/mL. The IC50 [3] was 780 nM, the IC50 (HCT-8 cells) was 710 nM and the MIC (Streptococcus pneumoniae) was 12.3 µg/mL.
